We go through 2 compounds from US8192767B2, “Antioxidant compositions comprising extracts of myrtle and rosemary” (Nuraging Biotech S.R.L., priority 2006, dated 2012).

In experiment [1] the test system is rat pheochromocytoma PC12 cell line. The experiment can be described thus: ATPLite test: ATP production of PC12 cells after H2O2-induced toxicity. Type of experiment: cell-based. As to conditions: H2O2 200 μM without addition of extracts. An excerpt: The test used was the ATPLite™ test (Perkin Elmer, Milan), an ATP monitoring system based on luciferase, which permits assessment of the cytostatic and proliferative effects of various biological compounds. [Cree I. A. and Andreotti P. E. Measurement of cytotoxicity by ATP-based luminescence assay in primary cell cultures and cell lines—Toxicology in Vitro, 11, 553-556; (1997); Guan S., Bao Y. M., Jiang B., An L. Protective effect of protocatechuic acid from Alpinia oxyphylla on hydrogen peroxide-induced oxidative PC12 cell death—Eur. J. Pharmacol. 24: 538; (2006)].
The rat pheochromocytoma PC12 cell line (European Collection of Cell Cultures—ECACC, Sigma Aldrich, Milan) was used to evaluate the potential protective effects of extracts of rosemary (the same extract as described above in example 1) and of myrtle (the same extract as described above in example 2) against the toxicity induced by hydrogen peroxide (H2O2). The cells were grown on 96-well plates treated with poly-D-lysine (Sigma Aldrich, Milan) in D-MEM culture medium added with fetal bovine serum (FBS), penicillin/streptomycin, gentamycin, L-glutamine (all Invitrogen, Milan). […] After 24 hours the activity of the extracts on ATP production was evaluated using a Victor 3 spectrophotometer (Perkin Elmer, Milan). […]
A general note: ATP-based viability assays read luminescence as a measure of living cells.

A short description of experiment [2]: DPPH (2,2-diphenyl-1-picryl-hydrazyl) spectrophotometric antioxidant test in ethanol, 517 nm. The class given is biochemical. The following applies: DPPH 6.0×10^−6 M. From the text:
The antioxidant activity of the combination which is the object of the present invention can be assayed in vitro using the DPPH (2,2-diphenyl-1-picryl-hydrazyl) spectrophotometric method. This method makes it possible to determine the antioxidant potential of a molecule to be assayed by measuring the variation of the absorbance of the radical DPPH in its presence at the wavelength of 517 nm (as reported in the literature) [Blois M. S., Antioxidant determination by the use of a stable free radical—Nature, 181:1199-1200; (1958)], according to the reaction: Z·+AH=ZH+A· [1] where: • Z· is the radical DPPH • AH is the single antioxidant (reducing) molecule present in the composition or in the extract • ZH is the reduced form of DPPH • A· is the free radical produced by oxidation of the antioxidant molecule.
The greater the reduction of the absorbance of the radical DPPH in solution, the greater will be the antioxidant potential of the molecule studied. The final results of the assay are expressed as EC50, i.e. as the concentration of antioxidant molecule at which there is a 50% reduction of the DPPH radical according to the following formula: % Inhibition=[A(T0)−A(Tn/A(T0)] • A(T0)=absorbance of the control sample at time 0 • A(Tn)=absorbance in the presence of the antioxidant sample at time n.
The antioxidant capacity of the combination according to the present invention was assayed in ethanol, using a DPPH concentration of 6.0×10^−6 M and final concentrations of each extract, previously solubilised in ethanol, ranging from 1 mcg/ml to 3 mg/ml. For the purposes of evaluating the synergistic effect the extracts were also assayed in a mixture in ratios ranging from 0.1:1 to 9.9:1. The myrtle and rosemary extracts were each subjected to the same extraction procedure, selected from among those indicated above, then brought to dryness and redissolved in ethanol at the desired concentrations so as to standardise the evaluation methodology. The absorbance was then determined at the wavelength of 517 nm in 1 cm quartz cells.
In general terms: DPPH is a stable violet radical that fades when it is reduced.

On to `OO` [H2O2, hydrogen peroxide], for which the “ATP production vs vehicle” value in experiment [1] is −80%±4.1.

Take `COc1ccc(O)c(C(C)(C)C)c1` [BHA, butylated hydroxyl anisol]: the “decrease in the absorbance of DPPH” value in experiment [2] (BHA 0.01 mg/ml in ethanol) is 96.63%; in experiment [2] (BHA 0.1 mg/ml in ethanol), 95.41%; in experiment [2] (BHA 1 mg/ml in ethanol), 92.18%.
